The record followed here is patent publication US10758534B2 (Vertex Pharmaceuticals Incorporated, priority 2014, dated 2020).

Structures are written as SMILES.

This experiment has as its target T1, F508del (Homo sapiens, UniProt P13569, DEL508-508).
T1 construct: expressed in transfected cells
The experiment in a line: Protocol 1: membrane potential optical assay (FLIPR III, voltage sensing dye), identification of potentiator compounds. The class given is cell-based. Conditions: Table 3, compounds of Table 1. In a few lines: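 Gating potentiation is read as a membrane-potential fluorescence change (FLIPR III, voltage-sensing dye) after one forskolin addition under a Cl− gradient, with gluconate replacing chloride, pH 7.4. Cells are F508del-expressing NIH3T3 mouse fibroblasts held 24 h at 27 °C and exposed to compound before dye loading.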

T1 sequence (P13569 with tags, fused parts or gaps DEL508-508): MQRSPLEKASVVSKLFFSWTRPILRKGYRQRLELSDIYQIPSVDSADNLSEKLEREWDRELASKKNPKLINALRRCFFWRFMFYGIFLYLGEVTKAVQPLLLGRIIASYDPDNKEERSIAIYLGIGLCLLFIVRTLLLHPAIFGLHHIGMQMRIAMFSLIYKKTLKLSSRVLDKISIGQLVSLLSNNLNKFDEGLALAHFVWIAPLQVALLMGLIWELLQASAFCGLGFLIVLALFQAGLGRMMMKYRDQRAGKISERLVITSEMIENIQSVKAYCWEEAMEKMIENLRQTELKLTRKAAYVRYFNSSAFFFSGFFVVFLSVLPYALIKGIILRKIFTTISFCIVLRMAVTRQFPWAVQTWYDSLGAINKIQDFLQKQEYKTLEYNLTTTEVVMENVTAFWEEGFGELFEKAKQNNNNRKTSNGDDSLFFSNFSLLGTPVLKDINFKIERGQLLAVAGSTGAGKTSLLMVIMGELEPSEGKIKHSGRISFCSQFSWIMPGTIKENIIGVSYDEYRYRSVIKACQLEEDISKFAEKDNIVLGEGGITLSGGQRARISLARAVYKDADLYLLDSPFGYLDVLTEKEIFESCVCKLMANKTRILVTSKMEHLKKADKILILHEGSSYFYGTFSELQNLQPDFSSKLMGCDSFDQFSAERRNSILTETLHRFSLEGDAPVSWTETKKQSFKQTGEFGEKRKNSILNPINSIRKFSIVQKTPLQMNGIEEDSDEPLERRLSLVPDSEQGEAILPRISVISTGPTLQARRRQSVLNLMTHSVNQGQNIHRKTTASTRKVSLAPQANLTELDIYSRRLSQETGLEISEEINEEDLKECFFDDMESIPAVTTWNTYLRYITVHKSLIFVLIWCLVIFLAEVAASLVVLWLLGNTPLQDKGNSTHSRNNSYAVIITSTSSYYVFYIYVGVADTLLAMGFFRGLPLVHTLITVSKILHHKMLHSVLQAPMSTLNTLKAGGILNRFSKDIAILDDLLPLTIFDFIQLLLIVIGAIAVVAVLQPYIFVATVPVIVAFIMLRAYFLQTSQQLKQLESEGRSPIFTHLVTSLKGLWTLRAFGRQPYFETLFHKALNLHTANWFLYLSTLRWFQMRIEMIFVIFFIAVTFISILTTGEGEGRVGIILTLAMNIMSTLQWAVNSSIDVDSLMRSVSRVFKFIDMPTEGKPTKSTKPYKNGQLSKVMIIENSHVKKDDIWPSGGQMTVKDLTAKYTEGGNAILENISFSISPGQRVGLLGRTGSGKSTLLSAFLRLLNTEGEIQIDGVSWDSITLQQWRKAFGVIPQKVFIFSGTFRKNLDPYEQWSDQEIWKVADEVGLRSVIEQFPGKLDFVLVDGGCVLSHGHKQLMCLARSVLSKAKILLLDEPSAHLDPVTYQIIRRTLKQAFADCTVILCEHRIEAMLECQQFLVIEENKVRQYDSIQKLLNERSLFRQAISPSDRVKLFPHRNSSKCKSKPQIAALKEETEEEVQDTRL

Turning to `Cc1cc(C)c(Oc2ncc(-c3ccccc3C(C)C)cc2C(=O)NS(=O)(=O)c2cccc(N)n2)c(C)c1` [Compound 865, N-[(6-amino-2-pyridyl)sulfonyl]-5-(2-isopropylphenyl)-2-(2,4,6-trimethylphenoxy)pyridine-3-carboxamide], the EC30 result is recorded as “+++ (“+++” means <3 uM)”. Next, `CCOc1cc(-c2ccc(C(=O)NS(=O)(=O)c3cccc(N)n3)c(N3C[C@@H](C)CC3(C)C)n2)cc(C(F)(F)F)c1` [Compound 1569, N-[(6-amino-2-pyridyl)sulfonyl]-6-[3-ethoxy-5-(trifluoromethyl)phenyl]-2-[(4S)-2,2,4-trimethylpyrrolidin-1-yl]pyridine-3-carboxamide]: “+++ (“+++” means <3 uM)”. Next, `CCOc1cccc2c1CN(Cc1c(C)cc(C)cc1C)C2(C)C(=O)NS(=O)(=O)c1ncccc1O` (stereo not shown) [Compound 1642, 4-ethoxy-N-[(3-hydroxy-2-pyridyl)sulfonyl]-1-methyl-2-[(2,4,6-trimethylphenyl)methyl]isoindoline-1-carboxamide]: “+++ (“+++” means <3 uM)”. Consider `Cc1ccc(-c2nc3c(cc2C(=O)NS(=O)(=O)c2cccc(N)c2)CCCC3(C)C)cc1` [Compound 1231, (3-aminophenyl)sulfonyl-[8,8-dimethyl-2-(p-tolyl)-6,7-dihydro-5H-quinoline-3-carbonyl]azanide], for which the EC30 result was “+++ (“+++” means <3 uM)”.

`CC(C)Oc1ccc(-c2ccc(C(=O)NS(=O)(=O)c3cccc(N)n3)c(N3CCCC3(C)C)n2)cn1` [Compound 834, N-[(6-amino-2-pyridyl)sulfonyl]-2-(2,2-dimethylpyrrolidin-1-yl)-6-(6-isopropoxy-3-pyridyl)pyridine-3-carboxamide]: the EC30 result is reported as “+++ (“+++” means <3 uM)”. In the case of `CC1CN(c2ncccc2C(=O)NS(=O)(=O)c2cccc(OCCC3CCCCC3)n2)C(C)(C)C1` (stereo not shown) [Compound 1800, N—[[6-(2-cyclohexylethoxy)-2-pyridyl]sulfonyl]-2-(2,2,4-trimethylpyrrolidin-1-yl)pyridine-3-carboxamide] it was “+++ (“+++” means <3 uM)”.

Consider `CC(C)COc1cc(-c2ccc(C(=O)NS(=O)(=O)c3cccc(N)n3)c(N3CCC(C)CC3)n2)ccc1Cl` [Compound 1266, N-[(6-amino-2-pyridyl)sulfonyl]-6-(4-chloro-3-isobutoxy-phenyl)-2-(4-methyl-1-piperidyl)pyridine-3-carboxamide], for which the EC30 entry is on record as “+++ (“+++” means <3 uM)”. As to `C[C@@H]1CN(c2nc(C(C)(C)C)c(/C=C/c3ccc(C(F)(F)F)cc3)cc2C(=O)NS(=O)(=O)c2cccc(N)n2)C(C)(C)C1` [Compound 1566, N-[(6-amino-2-pyridyl)sulfonyl]-6-tert-butyl-5-[(E)-2-[4-(trifluoromethyl)phenyl]vinyl]-2-[(4S)-2,2,4-trimethylpyrrolidin-1-yl]pyridine-3-carboxamide], the EC30 entry is given as “+++ (“+++” means <3 uM)”. Next, `Cc1cc(C)c(Oc2nc(-c3cnn(C(C)C)c3)ccc2C(=O)NS(=O)(=O)c2cccc(N)n2)c(C)c1` [Compound 808, N-[(6-amino-2-pyridyl)sulfonyl]-6-(1-isopropylpyrazol-4-yl)-2-(2,4,6-trimethylphenoxy)pyridine-3-carboxamide]: “++ (“++” means between 3 uM and 10 uM)”; `Cc1cc(OC(C)C)cc(-c2cnc(N3CC(C)CC3(C)C)c(C(=O)NS(=O)(=O)c3cccc(N)n3)c2)c1` (stereo not shown) [Compound 1889, N-[(6-amino-2-pyridyl)sulfonyl]-5-(3-isopropoxy-5-methyl-phenyl)-2-(2,2,4-trimethylpyrrolidin-1-yl)pyridine-3-carboxamide]: “+++ (“+++” means <3 uM)”. Next, `CC(C)COc1cc(F)cc(-c2ccc(C(=O)NS(=O)(=O)c3cccc(N)n3)c(N3CCCC(C)C3C)n2)c1` (stereo not shown) [Compound 837, N-[(6-amino-2-pyridyl)sulfonyl]-2-(2,3-dimethyl-1-piperidyl)-6-(3-fluoro-5-isobutoxy-phenyl)pyridine-3-carboxamide]: “+++ (“+++” means <3 uM)”; `CC(C)COc1cc(F)cc(-c2ccc(C(=O)NS(=O)(=O)c3ccn[nH]3)c(N3C(C)CC(c4ccccc4)C3C)n2)c1` (stereo not shown) [Compound 1348, 2-(2,5-dimethyl-3-phenyl-pyrrolidin-1-yl)-6-(3-fluoro-5-isobutoxy-phenyl)-N-(1H-pyrazol-5-ylsulfonyl)pyridine-3-carboxamide]: “+++ (“+++” means <3 uM)”; `CC(C)COc1cc(F)cc(-c2ccc(C(=O)NS(=O)(=O)c3cccc(N)n3)c(OCC3(C)CC3)n2)c1` [Compound 1668, N-[(6-amino-2-pyridyl)sulfonyl]-6-(3-fluoro-5-isobutoxy-phenyl)-2-[(1-methylcyclopropyl)methoxy]pyridine-3-carboxamide]: “+++ (“+++” means <3 uM)”.

Consider `Cc1ccc(OCC(C)(C)C)nc1-c1ccc(C(=O)NS(=O)(=O)c2cccc(N)n2)c(N2CC(C)CC2(C)C)n1` (stereo not shown) [Compound 1645, N-[(6-amino-2-pyridyl)sulfonyl]-6-[6-(2,2-dimethylpropoxy)-3-methyl-2-pyridyl]-2-(2,2,4-trimethylpyrrolidin-1-yl)pyridine-3-carboxamide], for which the EC30 result is recorded as “+++ (“+++” means <3 uM)”.

In the case of `CC(C)Oc1ccc(-c2ccc(C(=O)NS(=O)(=O)c3cccc(N)n3)c(N3CCC[C@H]3C)n2)cn1` [Compound 1354, N-[(6-amino-2-pyridyl)sulfonyl]-6-(6-isopropoxy-3-pyridyl)-2-[(2R)-2-methylpyrrolidin-1-yl]pyridine-3-carboxamide], the EC30 result is reported as “+++ (“+++” means <3 uM)”.

`Cc1ccccc1-c1cnc(N2CC(C)CC2(C)C)c(C(=O)NS(=O)(=O)c2cccc(N)n2)c1` (stereo not shown) [Compound 1701, N-[(6-amino-2-pyridyl)sulfonyl]-5-(o-tolyl)-2-(2,2,4-trimethylpyrrolidin-1-yl)pyridine-3-carboxamide]: the EC30 entry was “+++ (“+++” means <3 uM)”. Regarding `Cc1cc(C)c(Cn2nc(C(C)(C)C)cc2C(=O)NS(=O)(=O)c2cccnc2N)c(C)c1` [Compound 1106, N-[(2-amino-3-pyridyl)sulfonyl]-5-tert-butyl-2-[(2,4,6-trimethylphenyl)methyl]pyrazole-3-carboxamide], the EC30 entry is “+ (“+” means greater than 10 uM)”. As to `CC1CN(c2ncccc2C(=O)NS(=O)(=O)c2cccc(Oc3cncc(Cl)c3)n2)C(C)(C)C1` (stereo not shown) [Compound 1957, N—[[6-[(5-chloro-3-pyridyl)oxy]-2-pyridyl]sulfonyl]-2-(2,2,4-trimethylpyrrolidin-1-yl)pyridine-3-carboxamide], the EC30 result was “++ (“++” means between 3 uM and 10 uM)”. In the case of `CC1CN(c2ncccc2C(=O)NS(=O)(=O)c2cccc(NCCCN(C)c3ccccc3)n2)C(C)(C)C1` (stereo not shown) [Compound 1879, N—[[6-[3-(N-methylanilino)propylamino]-2-pyridyl]sulfonyl]-2-(2,2,4-trimethylpyrrolidin-1-yl)pyridine-3-carboxamide] it was “+++ (“+++” means <3 uM)”. Consider `CCC1(CC)CCCN(c2nc(-c3ccc(OC(C)C)nc3)ccc2C(=O)NS(=O)(=O)c2cccc(N)n2)C1` [Compound 971, N-[(6-amino-2-pyridyl)sulfonyl]-2-(3,3-diethyl-1-piperidyl)-6-(6-isopropoxy-3-pyridyl)pyridine-3-carboxamide], for which the EC30 entry is reported as “+++ (“+++” means <3 uM)”. Next, `CC(C)Oc1ccc(-c2ccc(C(=O)NS(=O)(=O)c3cccc(N)n3)c(N3[C@H](C)CC[C@H]3C)n2)cn1` [Compound 1198, N-[(6-amino-2-pyridyl)sulfonyl]-2-[(2R,5R)-2,5-dimethylpyrrolidin-1-yl]-6-(6-isopropoxy-3-pyridyl)pyridine-3-carboxamide]: “+++ (“+++” means <3 uM)”; `Cc1cc(-c2ccc(C(=O)NS(=O)(=O)c3cccnc3N)c(N3C[C@@H](C)CC3(C)C)n2)cc(C)c1O` [Compound 1923, N-[(2-amino-3-pyridyl)sulfonyl]-6-(4-hydroxy-3,5-dimethyl-phenyl)-2-[(4S)-2,2,4-trimethylpyrrolidin-1-yl]pyridine-3-carboxamide]: “++ (“++” means between 3 uM and 10 uM)”. Next, `CC(C)COc1cc(F)cc(-c2ccc(C(=O)NS(=O)(=O)c3ccn[nH]3)c(N3CCCC(C)C3C)n2)c1` (stereo not shown) [Compound 1169, 2-(2,3-dimethyl-1-piperidyl)-6-(3-fluoro-5-isobutoxy-phenyl)-N-(1H-pyrazol-5-ylsulfonyl)pyridine-3-carboxamide]: “++ (“++” means between 3 uM and 10 uM)”. For the molecule `CC(C)Oc1ccc(-c2ccc(C(=O)NS(=O)(=O)c3cccc(N)n3)c(N3CCCCC3C)n2)cn1` (stereo not shown) [Compound 1182, N-[(6-amino-2-pyridyl)sulfonyl]-6-(6-isopropoxy-3-pyridyl)-2-(2-methyl-1-piperidyl)pyridine-3-carboxamide], the EC30 result was “++ (“++” means between 3 uM and 10 uM)”. In the case of `CCc1cccc(S(=O)(=O)NC(=O)c2cc(C(C)(C)C)nn2Cc2c(C)cc(C)cc2C)c1` [Compound 823, 5-tert-butyl-N-(3-ethylphenyl)sulfonyl-2-[(2,4,6-trimethylphenyl)methyl]pyrazole-3-carboxamide] it was “+ (“+” means greater than 10 uM)”; in that of `Cc1cc(C)c(Oc2nc(C(F)(F)C(F)(F)F)ccc2C(=O)NS(=O)(=O)c2cccc(N)n2)c(C)c1` [Compound 853, N-[(6-amino-2-pyridyl)sulfonyl]-6-(1,1,2,2,2-pentafluoroethyl)-2-(2,4,6-trimethylphenoxy)pyridine-3-carboxamide], “+++ (“+++” means <3 uM)”. As to `CC(C)COc1cc(F)cc(-c2ccc(C(=O)NS(=O)(=O)c3cccc(N)n3)c(OC(C)C3CCC3)n2)c1` (stereo not shown) [Compound 1238, N-[(6-amino-2-pyridyl)sulfonyl]-2-(1-cyclobutylethoxy)-6-(3-fluoro-5-isobutoxy-phenyl)pyridine-3-carboxamide], the EC30 entry is recorded as “+++ (“+++” means <3 uM)”. Next, `Cc1cc(C)c(CN2Cc3ccccc3C2(C)C(=O)NS(=O)(=O)c2ccccc2)c(C)c1` (stereo not shown) [Compound 873, N-(benzenesulfonyl)-1-methyl-2-[(2,4,6-trimethylphenyl)methyl]isoindoline-1-carboxamide]: “+++ (“+++” means <3 uM)”.
